Data as given in EP0955376A1, “ANTIBIOTIC TKR 459, PRODUCTION METHOD, AND MICROORGANISM” (Takara Shuzo Co, Ltd., priority 1996, dated 1998).
Converted amounts (≈) assume the structure as drawn. Where two headings read alike, the source gives them in different places.

Legend:
[1] = system: Candida albicans TIMM0136; assay: Antimicrobial spectrum, liquid medium dilution method; format: cell-based; details: medium YNBG, minimal concentration causing substantially complete inhibition of growth, read-out: Minimal inhibitory concentration
Description: (§1) The TKR459 obtained was used to determine antimicrobial spectra against various microorganisms. The minimal inhibitory concentration (µg/ml) was measured by the liquid medium dilution method as the minimal concentration causing a substantially complete inhibition of micobial growth. The sub-minimal inhibitory concentration (µg/ml) was determined as the minimal concentration causing a partial inhibition of micobial growth and shown in the parentheses of Table 2. In the table, YNBG stands for a medium comprising 0.67% of yeast nitrogen base (manufactured by Difco) and 1.0% of glucose.

Candida kefyr TIMM0301 = assay: as above; format: cell-based; details: Kluyveromyces marxianus, medium YNBG
Description: as §1

[2] = system: Cryptococcus neoformans TIMM0354; assay: as above; format: cell-based; details: medium YNBG, minimal concentration causing substantially complete inhibition of growth, read-out: Minimal inhibitory concentration
Description: as §1

ICR mice = assay: Toxicity after intraperitoneal administration to mice; format: in vivo; details: dose 100 mg/kg
Solubility in solvents = format: physicochemical

## CC1(CCC(=O)O)CCCCCCCCCCCCCC(O)C(O)C(O)C(N)C(O)O1 (stereo not drawn) [TKR459]
[1]
  MIC: 0.78 µg/mL (≈ 1.74 µM)
Candida kefyr TIMM0301; minimal concentration causing substantially complete inhibition of growth, read-out: Minimal inhibitory concentration
  MIC: 0.78 µg/mL (≈ 1.74 µM)
Candida kefyr TIMM0301; value in parentheses, minimal concentration causing partial inhibition of growth, read-out: sub-minimal inhibitory concentration
  MIC: 0.39 µg/mL (≈ 0.871 µM)
[2]
  MIC: 3.13 µg/mL (≈ 6.99 µM)
ICR mice
  toxic signs: no toxic signs
Solubility in solvents; in chloroform
  solubility: sparingly soluble
Solubility in solvents; in hexane
  solubility: sparingly soluble
Solubility in solvents; in methanol
  solubility: soluble
Solubility in solvents; in water
  solubility: soluble
